Data from article PMC11079024, “Identification of a family of species-selective complex I inhibitors as potential anthelmintics” (Nature Communications, 2024).
Values joined by “and” are separate entries in the source; they are usually repeats but may differ in a detail not shown here. Identical values can stand only once. Like-named read-outs stand apart in the source and are kept apart here.

Biological target: C. elegans (N2) complex I (NADH:ubiquinone oxidoreductase) (Caenorhabditis elegans, UniProt P24887+Q93873+Q94360)
Sequence (Q94360 17-199): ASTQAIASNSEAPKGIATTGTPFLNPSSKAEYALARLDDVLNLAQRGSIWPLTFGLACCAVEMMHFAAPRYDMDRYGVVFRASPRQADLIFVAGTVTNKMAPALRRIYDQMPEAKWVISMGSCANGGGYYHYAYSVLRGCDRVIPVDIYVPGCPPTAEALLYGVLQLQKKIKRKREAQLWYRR
Sequence (P24887 whole entry): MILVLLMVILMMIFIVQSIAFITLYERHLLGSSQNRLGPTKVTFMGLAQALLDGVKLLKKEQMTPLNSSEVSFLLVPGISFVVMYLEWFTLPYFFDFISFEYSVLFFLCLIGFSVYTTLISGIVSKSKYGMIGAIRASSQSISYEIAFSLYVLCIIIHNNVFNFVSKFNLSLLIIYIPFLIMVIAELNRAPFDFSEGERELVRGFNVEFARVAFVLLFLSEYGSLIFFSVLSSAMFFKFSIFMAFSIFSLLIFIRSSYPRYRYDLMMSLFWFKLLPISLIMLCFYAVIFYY
Sequence (Q93873 31-482): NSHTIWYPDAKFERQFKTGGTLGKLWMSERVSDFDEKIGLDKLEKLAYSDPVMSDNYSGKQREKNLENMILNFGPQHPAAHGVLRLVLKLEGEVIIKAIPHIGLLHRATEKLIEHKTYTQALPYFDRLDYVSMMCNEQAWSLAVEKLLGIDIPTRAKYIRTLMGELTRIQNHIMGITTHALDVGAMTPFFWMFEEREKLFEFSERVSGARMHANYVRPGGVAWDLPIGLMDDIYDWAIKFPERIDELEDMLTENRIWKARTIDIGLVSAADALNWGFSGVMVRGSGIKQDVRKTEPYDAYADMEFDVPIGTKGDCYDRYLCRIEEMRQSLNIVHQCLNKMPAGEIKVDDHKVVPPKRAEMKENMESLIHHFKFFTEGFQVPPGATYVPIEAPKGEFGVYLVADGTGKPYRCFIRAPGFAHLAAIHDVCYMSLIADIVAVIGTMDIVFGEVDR
Test: biochemical
Assay type: biochemical
Outline: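 Mitochondria, 0.2 mg/mL protein, freeze-thawed three times, assayed in 25 mM KPi pH 7.5 with BSA, 80 μM NADH, 60 μM decylubiquinone, 160 μM DCIP, antimycin A and KCN. Rate from initial linear slope of A600 over 15 min. % of solvent control.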

[1] = wild-type C. elegans mitochondria, mean of replicates, read-out: percent (%) in vitro complex I activity relative to solvent control
[2] = wild-type C. elegans mitochondria, single replicate, read-out: percent (%) in vitro complex I activity relative to solvent control
[3] = wild-type C. elegans, individual Rep1-Rep4, read-out: percent in vitro complex I activity relative to solvent control, single replicates
[4] = wild-type C. elegans, mean of Rep1-4, read-out: percent in vitro complex I activity relative to solvent control, Mean
[5] = N2 wild-type mitochondria, Fig. 4d data set, mean of replicates, read-out: percent (%) in vitro complex I activity relative to solvent control
[6] = C. elegans mitochondria, Mean of replicates, read-out: in vitro complex I activity relative to solvent control
[7] = C. elegans mitochondria, single replicate, read-out: in vitro complex I activity relative to solvent control
[8] = C. elegans mitochondria, Mean, read-out: in vitro complex I activity relative to solvent control

In the case of `COc1ccc(Cc2nccc3cc(OC)c(OC)cc23)cc1OC` [Papaverine, reference compound], the remaining activity at 0.125 µM [1] is reported as 95.7%, the remaining activity at 0.313 µM [1] is reported as 87.5% and the remaining activity at 0.313 µM [2] is reported as 85.7%. It also gave a remaining activity at 0.625 µM [1] of 100%, a remaining activity at 0.625 µM [2] of 100% and a remaining activity at 1.5 µM [1] of 81.8%. For the same compound, the remaining activity at 1.5 µM [2] was 81.5%, the remaining activity at 3 µM [1] was 63.8% and the remaining activity at 3 µM [2] was 67.5%. For the same compound, the remaining activity at 15 µM [1] was 22.1%, the remaining activity at 37.5 µM [1] was 6.94% and the remaining activity at 75 µM [1] was 7.49%. The IC50 (wild-type (N2) mitochondria, read-out: C. elegans Complex I IC50) was 4.34 µM.

For `CC(C)Cc1ccc(C(C)c2nc3ccccc3n2C)cc1` (stereo not drawn) [NPD8790], the remaining activity at 0.0001 µM [3] was 100%, the remaining activity at 0.0001 µM [4] was 96.6% and the remaining activity at 0.0005 µM [3] was 105%. For the same compound, the remaining activity at 0.0005 µM [4] was 96.5%, the remaining activity at 0.001 µM [3] was 99% and the remaining activity at 0.001 µM [4] was 92.6%. It also gave a remaining activity at 0.0025 µM [3] of 107%, a remaining activity at 0.0025 µM [4] of 98.8% and a remaining activity at 0.005 µM [3] of 102%. The remaining activity at 0.005 µM [4] was 95.9%, the remaining activity at 0.013 µM [4] was 106% and the remaining activity at 0.025 µM [3] was 102%. The remaining activity at 0.025 µM [4] was 98.2%, the remaining activity at 0.063 µM [4] was 95.6% and the remaining activity at 0.125 µM [5] was 96.6%. For the same compound, the remaining activity at 0.125 µM (N2 wild-type mitochondria, Fig. 4d data set, single replicate, read-out: percent (%) in vitro complex I activity relative to solvent control) was 94.3%, the remaining activity at 0.125 µM [1] was 102% and the remaining activity at 0.125 µM [2] was 95.7%. The remaining activity at 0.125 µM [3] was 95.7%, the remaining activity at 0.125 µM [4] was 92% and the remaining activity at 0.313 µM [5] was 90.9%. It also gave a remaining activity at 0.313 µM [1] of 93%, a remaining activity at 0.313 µM [3] of 86.3% and a remaining activity at 0.313 µM [4] of 81.9%. The remaining activity at 0.625 µM [5] was 93.2%, the remaining activity at 0.625 µM [1] was 87% and the remaining activity at 0.625 µM [4] was 83.7%. For the same compound, the remaining activity at 1.5 µM [5] was 78.9%, the remaining activity at 1.5 µM [1] was 72.5% and the remaining activity at 1.5 µM [4] was 70.3%. The remaining activity at 3 µM [5] was 61.6%, the remaining activity at 3 µM [1] was 52.5% and the remaining activity at 3 µM [4] was 49.5%. For the same compound, the remaining activity at 15 µM [5] was 8.9%, the remaining activity at 15 µM [1] was 7.83% and the remaining activity at 15 µM [4] was 8.01%. The remaining activity at 37.5 µM [5] was 5.01%, the remaining activity at 37.5 µM [1] was 3.88% and the remaining activity at 37.5 µM [4] was 3.5%. The remaining activity at 75 µM [4] was 13.3%, the activity at 100 µM (100 µM compound, relative to solvent control, mean (SEM), read-out: % Activity Complex I) was 5.34% and the “Percent in vitro activity, Complex I (single replicate Rep1-Rep4)” value (100 μM of NPD compound, C. elegans mitochondria, individual biological replicates, 100 µM) was 0.000% and 4.423% and 13.672% and 3.252%. It also gave an activity at 100 µM (100 μM of NPD compound, C. elegans mitochondria, mean of four biological replicates, read-out: Percent in vitro activity, Complex I (Mean)) of 5.34%, a remaining activity at 0.06 µM (C. elegans mitochondria, 0.06 µM, Mean of replicates, read-out: in vitro complex I activity relative to solvent control) of 109% and a remaining activity at 0.13 µM [6] of 102%. The remaining activity at 0.13 µM [7] was 112%, the remaining activity at 0.313 µM [6] was 93% and the remaining activity at 0.625 µM [6] was 87%. It also gave a remaining activity at 1.5 µM [6] of 72.5%, a remaining activity at 3 µM [6] of 52.5% and a remaining activity at 15 µM [6] of 7.83%. For the same compound, the remaining activity at 37.5 µM [6] was 3.88%, the remaining activity at 0.0001 µM [8] was 104% and the remaining activity at 0.0005 µM [8] was 106%. For the same compound, the remaining activity at 0.0005 µM [7] was 105%, the remaining activity at 0.001 µM [8] was 104% and the remaining activity at 0.0025 µM [8] was 109%. It also gave a remaining activity at 0.0025 µM [7] of 107%, a remaining activity at 0.005 µM [8] of 107% and a remaining activity at 0.013 µM [8] of 115%. For the same compound, the remaining activity at 0.025 µM [8] was 108%, the remaining activity at 0.025 µM [7] was 102% and the remaining activity at 0.063 µM [8] was 109%. For the same compound, the remaining activity at 0.125 µM [8] was 102%, the remaining activity at 0.125 µM [7] was 95.7% and the remaining activity at 0.313 µM [8] was 93%. It also gave a remaining activity at 0.625 µM [8] of 87% and a remaining activity at 1.5 µM [8] of 72.5%.
